How the values were obtained:
Type in all cases: cell-based
Bacillus cereus = experiment: Agar plate disc-diffusion, antibacterial, Bacillus cereus; conditions: nutrient agar, 37° C., 48 hours, DMSO control zone subtracted
Experimental: (§1) The agar plate disc-diffusion method was applied. […] The discs were then placed onto the surface of agar plates (nutrient agar for bacteria and Sabouraud's dextrose agar for fungi) seeded with the test organism. Each plate contained 15 mL of the agar medium, previously seeded with 0.2 mL of the broth culture of each organism pregrown for 18 hours. The plates were incubated at 37° C. for 48 hours, and 72 hours for fungi. The inhibition zones was measured in mm. Discs impregnated with DMSO were used as a control, and its inhibition zone was subtracted from the tested compound actual inhibition zone.

Staphylococcus aureus = experiment: Agar plate disc-diffusion, antibacterial, Staphylococcus aureus; conditions: nutrient agar, 37° C., 48 hours, DMSO control zone subtracted
Experimental: as §1

Pseudomonas aeruginosa = experiment: Agar plate disc-diffusion, antibacterial, Pseudomonas aeruginosa; conditions: nutrient agar, 37° C., 48 hours, DMSO control zone subtracted
Experimental: as §1

Escherichia coli = experiment: Agar plate disc-diffusion, antibacterial, Escherichia coli; conditions: nutrient agar, 37° C., 48 hours, DMSO control zone subtracted
Experimental: as §1

Aspergillus flavus = experiment: Agar plate disc-diffusion, antifungal, Aspergillus flavus; conditions: Sabouraud's dextrose agar, 37° C., 72 hours, DMSO control zone subtracted
Experimental: as §1

[1] = test system: Chrysosporium keratinophilum; experiment: Agar plate disc-diffusion, antifungal, Chrysosporium keratinophilum; conditions: Sabouraud's dextrose agar, 37° C., 72 hours, DMSO control zone subtracted
Experimental: as §1

[2] = A = concentration of comp. = 10,000 μL
[3] = B = concentration of comp. = 30,000 μL
[4] = C = concentration of comp. = 50,000 μL

Q: `O=C(O)CCn1c(-c2ccc(Cl)cc2)nc(-c2ccc(Cl)cc2)c1-c1ccc(Cl)cc1` [V, 3-(2,4,5-tris(4-chlorophenyl)-1H-imidazol-1-yl)propanoic acid] was tested. Which “inhibition zone, Bacillus Cereus, A” value (Bacillus cereus; [2]) did it give?
A: Its value is 21 mm.

Q: What about the “inhibition zone, Bacillus Cereus, B” value (Bacillus cereus; [3]) of the same molecule?
A: Its value is 29 mm.

Q: And the “inhibition zone, Bacillus Cereus, C” value (Bacillus cereus; [4])?
A: Its value is 38 mm.

Q: What about the “inhibition zone, Staphylococcus aureus, A” value (Staphylococcus aureus; [2]) of the same molecule?
A: The value was 19 mm.

Q: What about the “inhibition zone, Staphylococcus aureus, B” value (Staphylococcus aureus; [3]) of the same molecule?
A: The value was 23 mm.

Q: What about the “inhibition zone, Staphylococcus aureus, C” value (Staphylococcus aureus; [4]) of the same molecule?
A: The value was 36 mm.

Q: What about the “inhibition zone, Pseudomonas aeruginosa, A” value (Pseudomonas aeruginosa; [2]) of the same molecule?
A: The value was 25 mm.

Q: What about the “inhibition zone, Pseudomonas aeruginosa, B” value (Pseudomonas aeruginosa; [3]) of the same molecule?
A: The value was 26 mm.

Q: And the “inhibition zone, Pseudomonas aeruginosa, C” value (Pseudomonas aeruginosa; [4])?
A: Its value is 37 mm.

Q: And the “inhibition zone, Escherichia coli, A” value (Escherichia coli; [2])?
A: The value was 27 mm.

Q: What about the “inhibition zone, Escherichia coli, B” value (Escherichia coli; [3]) of the same molecule?
A: Its value is 36 mm.

Q: What about the “inhibition zone, Escherichia coli, C” value (Escherichia coli; [4]) of the same molecule?
A: The value was 48 mm.

Q: What about the “inhibition zone, Aspergillus flavus, A” value (Aspergillus flavus; [2]) of the same molecule?
A: Its value is 19 mm.

Q: What about the “inhibition zone, Aspergillus flavus, B” value (Aspergillus flavus; [3]) of the same molecule?
A: Its value is 24 mm.

Q: What about the “inhibition zone, Aspergillus flavus, C” value (Aspergillus flavus; [4]) of the same molecule?
A: The value was 32 mm.

Q: And the “inhibition zone, Chrysosporium keratinophilum, A” value [1, 2]?
A: Its value is 25 mm.

Q: What about the “inhibition zone, Chrysosporium keratinophilum, B” value [1, 3] of the same molecule?
A: Its value is 26 mm.

Q: And the “inhibition zone, Chrysosporium keratinophilum, C” value [1, 4]?
A: Its value is 45 mm.
